From patent publication US10849861B2, “Pharmaceutical compound for treating colorectal cancer” (Everest Pharm. Industrial Co., LTD., priority 2018, dated 2020)

Assays:
[1] = system: human lung cancer cell line A549; test: Cell viability by MTT assay, A549; type: cell-based; settings: A549 lung cancer cells, 24 hours with drug
From the text: (§1) The cell line HCT-116 is an adult colorectal cancer cell, and its cells are TGF-β1 and TGF-β2, which are the targeted cells commonly used in preclinical colorectal cancer; the cell line DLD-1 is a […] human colorectal cancer. The cells, which are cancer cells that have invaded the lymph nodes in the late stage, have rapid metastatic growth and are also the targeted cells commonly used in preclinical studies of colorectal cancer; the cell line MCF-7 is an adult […] mastocarcinoma cell with Tx-4 oncogene, which is a targeted cell commonly used in preclinical studies of mastocarcinoma. The cell line A549 is an adult […] lung cancer cell, and its cell characteristic is the ability to synthesize lecithin. Pre-clinical studies of targeted cells are commonly used in lung cancer; cell line EG7 is a lymphoma cell, and its cells with antigen OVA are the targeted cells commonly used in cancer immunotherapy for preclinical studies; cell line L929 is fibroblast, which is the specified cell for preclinical studies of the cytotoxicity standard assay.
(§2) Cell Viability by MTT Assay […]
(§3) 4) The culture solution is extracted, and DMSO is added to dissolve the purple crystals, and the light absorption value is measured at a wavelength of 570 nm.
(§4) 5) The cell survival rate and IC50 of the drug are calculated by comparing the values of the control group with the light absorption values of different groups.

[2] = system: human colorectal cancer cell (HT-29) tumors; test: Animal assay: HT-29 colorectal tumor growth in nu/nu mouse; type: in vivo; settings: 10 mg/kg tail vein, 2 times per week, HT-29 in nu/nu mouse
Method: The mouse is used as a model organism to observe the inhibition growth of TG1 on colorectal cancer tumors.
1) The human colorectal cancer cell (HT-29) is implanted in the back of mouse (nu/nu mouse), and the tumors are grown to about 250 mm^3 for grouping.
2) The mice are divided into 3 groups (untreated group, treatment group TG1 and clinical anticancer drug Irinotecan of treatment group), 8 mice in each group.
3) The treatment group TG1 and Irinotecan are administered at a concentration of 10 mg/kg, and the drug is administered in the tail vein at a frequency of 2 times per week.
4) Observe the tumor volume growth, the tumor volume calculation formula is: length×width×width×0.5.

lymphoma cell line E.G7 = test: Cell viability by MTT assay, E.G7; type: cell-based; settings: E.G7 lymphoma cells, 24 hours with drug
From the text: as §1, §2, §3, §4

[3] = system: human colorectal cancer cell line DLD-1; test: Cell viability by MTT assay, DLD-1; type: cell-based; settings: DLD-1 colorectal cancer cells, 24 hours with drug
From the text: as §1, §2, §3, §4

[4] = system: human colorectal cancer cell line HCT-116; test: Cell viability by MTT assay, HCT-116; type: cell-based
From the text: as §1, §2, §3, §4

[5] = system: fibroblast cell line L929; test: Cell viability by MTT assay, L929; type: cell-based; settings: Mus musculus, L929 fibroblast cells, 24 hours with drug
From the text: as §1, §2, §3, §4

[6] = system: human breast cancer cell line MCF-7; test: Cell viability by MTT assay, MCF-7; type: cell-based; settings: MCF7, MCF-7 breast cancer cells, 24 hours with drug
From the text: as §1, §2, §3, §4

[7] = system: human colorectal cancer (Caco2, SW480, HCT116); settings: Saunier et al. 2017; cited from earlier work

Row | Compound | IC50 [1] | mean tumor volume ([2]; 10th day) | average tumor volume ([2]; 15th day) | average tumor volume ([2]; 20th day) | IC50 (lymphoma cell line E.G7) | IC50 [3] | IC50 ([4]; Homo sapiens, HCT-116 colorectal cancer cells, MTT assay, 24 hours with drug) | ability to poison colorectal cancer cells relative to other cells ([4]; colorectal cancer cells versus other cells, from IC50 values of Table 1) | IC50 [5] | IC50 [6] | ability to inhibit cancer cells [7]
1 | Oc1ccc(/C=C/c2cc(O)cc(O)c2O)cc1 [TG1, 2,3,5, 4′-tetrahydroxy-trans-stilbene] | 63 µM | 291 mm^3 | 300 mm^3 | 461 mm^3 | 180 µM | 0.056 µM | 0.031 µM | 1000-6000 times | 255 µM | 190 µM | –
2 | Oc1ccc(C=Cc2cc(O)cc(O)c2)cc1 [resveratrol] | – | – | – | – | – | – | – | – | – | – | no any ability to inhibit cancer cells
